This is an account of results in patent US20240228488A1 (TAKEDA PHARMACEUTICAL COMPANY LIMITED, priority 2021, published 2024).

Chain of human activated kallikrein enzyme (P03952 391-638 limits assumed): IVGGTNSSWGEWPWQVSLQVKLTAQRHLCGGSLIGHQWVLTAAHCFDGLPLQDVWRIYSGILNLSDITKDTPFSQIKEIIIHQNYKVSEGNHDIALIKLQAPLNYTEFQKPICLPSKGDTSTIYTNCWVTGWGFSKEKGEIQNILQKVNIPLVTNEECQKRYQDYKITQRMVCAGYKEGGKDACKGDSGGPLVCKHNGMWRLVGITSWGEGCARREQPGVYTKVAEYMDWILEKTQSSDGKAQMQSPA
Chain of human activated kallikrein enzyme (P03952 20-390 partner limits assumed): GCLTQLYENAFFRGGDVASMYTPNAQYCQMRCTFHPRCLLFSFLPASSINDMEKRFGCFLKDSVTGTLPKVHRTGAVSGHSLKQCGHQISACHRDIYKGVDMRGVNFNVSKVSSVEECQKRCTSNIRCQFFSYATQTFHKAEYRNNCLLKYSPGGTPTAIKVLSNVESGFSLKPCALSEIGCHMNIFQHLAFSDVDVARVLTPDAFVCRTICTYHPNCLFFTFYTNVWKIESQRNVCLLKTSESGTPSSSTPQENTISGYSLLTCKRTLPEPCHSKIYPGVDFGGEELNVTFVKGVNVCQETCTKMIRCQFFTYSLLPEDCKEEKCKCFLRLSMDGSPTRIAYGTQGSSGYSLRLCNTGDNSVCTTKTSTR

One assay concerns the target human activated kallikrein enzyme (Homo sapiens, UniProt P03952). In words: Plasma kallikrein inhibition, fluorogenic PFR-AMC substrate, 500 pM activated kallikrein format. Format: biochemical. The conditions noted are these: 500 pM activated kallikrein, 300 uM PFR-AMC, 30 min preincubation, 10 min reaction; read-out: Primary Dose Response Assay: Average EC50. On the procedure:
Compounds were evaluated for inhibition of the human activated kallikrein enzyme in two formats of an assay employing a fluorogenic peptide substrate. In one assay format, the concentrations of reagents were as follows: 20 mM Tris pH 7.5, 1 mM EDTA, 150 mM sodium chloride, 0.1% PEG-400, 0.1% Triton X-100, 500 pM activated kallikrein enzyme, 300 uM Pro-Phe-Arg-7-amido-4-methylcoumarin (PFR-AMC) substrate. Prior to reaction initiation with substrate, enzyme and inhibitors were preincubated for 30 min at room temperature. After initiation with substrate, reactions were incubated for 10 min at room temperature and fluorescence emission at 460 nm from 380 nm excitation measured with a microplate reader. In another assay format, the concentrations of reagents were as follows: 20 mM Tris pH 7.5, 1 mM EDTA, 150 mM sodium chloride, 0.1% PEG-400, 0.1% Triton X-100, 5 pM activated kallikrein enzyme, 300 uM PFR-AMC substrate. Prior to reaction initiation with substrate, enzyme and inhibitors were preincubated for 30 min at room temperature. After initiation with substrate, reactions were incubated for 18 hr at room temperature and fluorescence emission at 460 nm from 380 nm excitation measured with a microplate reader.
Table 49 provides the results of the assay in the format with 500 pM activated kallikrein assay. For the compounds listed in Table 49, the EC50 values are reported according to the following ranges: A≤1.0 nM; 1.0 nM<B≤10 nM; 10 nM<C≤100 nM; 100 nM<D≤1000 nM; 1000 nM<E≤6000 nM; 6000 nM<F.
Table 51 provides comparative plasma kallikrein inhibition potency in the assay format with 500 pM activated kallikrein assay (described in detail in a preceding example). For the compounds listed in Table 51, the EC50 values are reported according to the following ranges: A≤1.0 nM; 1.0 nM<B≤10 nM; 10 nM<C≤100 nM; 100 nM<D≤1000 nM; 1000 nM<E≤6000 nM; 6000 nM<F.
Broadly, the EC50 is the midpoint of the concentration-response curve. With `O=C(Nc1cc(NCc2cn3cc(C4CC4)ccc3n2)ncn1)[C@H]1C[C@@H]1c1cc(Cl)ccn1` (racemic) [Example I-265, rac-(1S*,2S*)-2-(4-chloropyridin-2-yl)-N-(6-(((6-cyclopropylimidazo[1,2-a]pyridin-2-yl)methyl)amino)pyrimidin-4-yl)cyclopropane-1-carboxamide], the 50% effective concentration (EC50) lay within 1 to 10 nM. Turning to `O=C(Nc1cc(N2C[C@@H](O)[C@@H](O)[C@@H]2c2cn3cc(C4CC4)ccc3n2)ncn1)[C@H]1C[C@@H]1c1cccc(Cl)c1` [Example 483, (1S,2S)-2-(3-chlorophenyl)-N-(6-((2S,3S,4R)-2-(6-cyclopropylimidazo[1,2-a]pyridin-2-yl)-3,4-dihydroxypyrrolidin-1-yl)pyrimidin-4-yl)cyclopropane-1-carboxamide], the EC50 was 100 to 1000 nM.

Take `CC(=O)OC(Cc1cn2cc(C3CC3)cc(N3CC(=O)N(C)C3=O)c2n1)c1cc(NC(=O)[C@H]2C[C@@H]2c2nccc(C)n2)nc(C)n1` (stereo partly drawn) [Example 673, 2-(6-cyclopropyl-8-(3-methyl-2,4-dioxoimidazolidin-1-yl)imidazo[1,2-a]pyridin-2-yl)-1-(2-methyl-6-((1S,2S)-2-(4-methylpyrimidin-2-yl)cyclopropane-1-carboxamido)pyrimidin-4-yl)ethyl acetate]: the EC50 was 100 to 1000 nM.

As to `O=C(Nc1cc(N2CC[C@H](O)[C@H]2c2cn3cc(C4CC4)ccc3n2)ncn1)[C@H]1C[C@@H]1c1cccc(Cl)c1` [Example 484, (1S,2S)-2-(3-chlorophenyl)-N-(6-((2R,3S)-2-(6-cyclopropylimidazo[1,2-a]pyridin-2-yl)-3-hydroxypyrrolidin-1-yl)pyrimidin-4-yl)cyclopropane-1-carboxamide], the EC50 is greater than 6000 nM.

As for `O=C(Nc1cc(OCc2cn3cc(C4CC4)ccc3n2)ncn1)[C@H]1C[C@@H]1c1cccc(Cl)c1` (racemic) [Example 104, rac-(1S*,2S*)-2-(3-chlorophenyl)-N-(6-((6-cyclopropylimidazo[1,2-a]pyridin-2-yl)methoxy)pyrimidin-4-yl)cyclopropane-1-carboxamide], the EC50 lay within 100 to 1000 nM. Regarding `Cc1ccnc([C@H]2C[C@@H]2C(=O)Nc2cc(OCc3cn4cc(C5CC5)cc(N5CC(=O)N(C)C5=O)c4n3)nc(C(C)O)n2)n1` (stereo partly drawn) [Example 662, (1S,2S)—N-(6-((6-cyclopropyl-8-(3-methyl-2,4-dioxoimidazolidin-1-yl)imidazo[1,2-a]pyridin-2-yl)methoxy)-2-(1-hydroxyethyl)pyrimidin-4-yl)-2-(4-methylpyrimidin-2-yl)cyclopropane-1-carboxamide], the EC50 is less than 1 nM. Still for that read-out and setting: the result for `Cc1ccnc([C@H]2C[C@@H]2C(=O)Nc2cc(N[C@H](C)c3cn4cc(C5CC5)cc(N5CCN(C)C5=O)c4n3)ncn2)n1` [Example 536, (1S,2S)-N-(6-(((R)-1-(6-cyclopropyl-8-(3-methyl-2-oxoimidazolidin-1-yl)imidazo[1,2-a]pyridin-2-yl)ethyl)amino)pyrimidin-4-yl)-2-(4-methylpyrimidin-2-yl)cyclopropane-1-carboxamide] reads less than 1 nM. The same measure, in the same setting: under `Cc1cc(N2CC(=O)N(C)C2=O)c2nc(C(C)Oc3cnnc(NC(=O)[C@H]4C[C@@H]4c4nccc(C)n4)c3)cn2c1` (stereo partly drawn) [Example 36, (1S,2S)-N-(5-(1-(6-methyl-8-(3-methyl-2,4-dioxoimidazolidin-1-yl)imidazo[1,2-α]pyridin-2-yl)ethoxy)pyridazin-3-yl)-2-(4-methylpyrimidin-2-yl)cyclopropane-1-carboxamide] stands less than 1 nM. `O=C(Nc1cc(NCc2cn3cc(C4CC4)ccc3n2)ncn1)[C@H]1C[C@@H]1c1cccc(Br)c1` (racemic) [Example 54, rac-(1S*,2S*)-2-(3-bromophenyl)-N-(6-(((6-cyclopropylimidazo[1,2-a]pyridin-2-yl)methyl)amino)pyrimidin-4-yl)cyclopropane-1-carboxamide]: the EC50 fell in the range of 10 to 100 nM. On the same count and under the same terms, under `Cc1ccnc([C@H]2C[C@@H]2C(=O)Nc2cc(N[C@H](C)c3cn4cc(C5CC5)cc(N5C(=O)N(C)C(=O)C5(C)C)c4n3)nc(C)n2)n1` [Example 432, (1S,2S)-N-(6-(((R)-1-(6-cyclopropyl-8-(3,5,5-trimethyl-2,4-dioxoimidazolidin-1-yl)imidazo[1,2-a]pyridin-2-yl)ethyl)amino)-2-methylpyrimidin-4-yl)-2-(4-methylpyrimidin-2-yl)cyclopropane-1-carboxamide] stands less than 1 nM; under `O=C(Nc1cc(NCc2cn3cc(C4CC4)ccc3n2)c(F)cn1)[C@H]1C[C@@H]1c1cccc(Cl)c1` (racemic) [Example 86, rac-(1S*,2S*)-2-(3-chlorophenyl)-N-(4-(((6-cyclopropylimidazo[1,2-a]pyridin-2-yl)methyl)amino)-5-fluoropyridin-2-yl)cyclopropane-1-carboxamide], 100 to 1000 nM. As to `Cc1ccnc([C@H]2C[C@@H]2C(=O)Nc2ccc(F)c(OCc3cn4cc(C5CC5)cc(N5CC(=O)N(C)C5=O)c4n3)c2)n1` [Example 657, (1S,2S)—N-(3-((6-cyclopropyl-8-(3-methyl-2,4-dioxoimidazolidin-1-yl)imidazo[1,2-a]pyridin-2-yl)methoxy)-4-fluorophenyl)-2-(4-methylpyrimidin-2-yl)cyclopropane-1-carboxamide], the EC50 was less than 1 nM. Still for that read-out and setting: under `Cc1ccnc([C@H]2C[C@@H]2C(=O)Nc2cc(N[C@H](C)c3cn4cc(C5CC5)cc(N5CC6(CN(C)C6)N(C)C5=O)c4n3)ncn2)n1` [Example I-245, (1S,2S)-N-(6-(((R)-1-(6-cyclopropyl-8-(2,5-dimethyl-6-oxo-2,5,7-triazaspiro[3.4]octan-7-yl)imidazo[1,2-a]pyridin-2-yl)ethyl)amino)pyrimidin-4-yl)-2-(4-methylpyrimidin-2-yl)cyclopropane-1-carboxamide] stands less than 1 nM; under `O=C(Nc1cc(NCc2cn3cc(C4CC4)cc(OCc4ccccc4)c3n2)ncn1)[C@H]1C[C@@H]1c1cccc(Cl)c1` [Example I-148, (1S,2S)-N-(6-(((8-(benzyloxy)-6-cyclopropylimidazo[1,2-a]pyridin-2-yl)methyl)amino)pyrimidin-4-yl)-2-(3-chlorophenyl)cyclopropane-1-carboxamide], 10 to 100 nM. With `O=C(Nc1cc(NCc2cn3cc(C4CC4)cc(N4CCN5CC(F)(F)CC5C4)c3n2)ncn1)[C@H]1C[C@@H]1c1cccc(Cl)c1` (stereo partly drawn) [Example I-197, (1S,2S)-2-(3-chlorophenyl)-N-(6-(((6-cyclopropyl-8-(7,7-difluorohexahydropyrrolo[1,2-a]pyrazin-2(1H)-yl)imidazo[1,2-a]pyridin-2-yl)methyl)amino)pyrimidin-4-yl)cyclopropane-1-carboxamide], the EC50 lay within 10 to 100 nM.

On to `CO[C@H]1C[C@H](c2cn3cc(C4CC4)ccc3n2)N(c2cc(NC(=O)[C@H]3C[C@@H]3c3cccc(Cl)c3)ncn2)C1` [Example 616, (1S,2S)-2-(3-chlorophenyl)-N-(6-((2R,4S)-2-(6-cyclopropylimidazo[1,2-a]pyridin-2-yl)-4-methoxypyrrolidin-1-yl)pyrimidin-4-yl)cyclopropane-1-carboxamide], for which the EC50 was greater than 6000 nM. On to `O=C(Nc1cc(NCc2cn3cc(C4CC4)cc(OC4CNC4)c3n2)ncn1)[C@H]1C[C@@H]1c1cccc(Cl)c1` [Example 306, (1S,2S)—N-(6-(((8-(azetidin-3-yloxy)-6-cyclopropylimidazo[1,2-a]pyridin-2-yl)methyl)amino)pyrimidin-4-yl)-2-(3-chlorophenyl)cyclopropane-1-carboxamide], for which the EC50 is less than 1 nM. On the same count and under the same terms, under `O=C(Nc1cc(N2CCC[C@@H]2c2cn3cc(C4CC4)ccc3n2)ncn1)[C@H]1C[C@@H]1c1cccc(Cl)c1` [Example I-251, (1S,2S)-2-(3-chlorophenyl)-N-(6-((R)-2-(6-cyclopropylimidazo[1,2-a]pyridin-2-yl)pyrrolidin-1-yl)pyrimidin-4-yl)cyclopropane-1-carboxamide] stands 10 to 100 nM. On to `CC(C)c1ccc2nc(CNc3cc(NC(=O)[C@H]4C[C@@H]4c4cccc(Cl)c4)ncn3)cn2c1` [Example I-160, (1S,2S)-2-(3-chlorophenyl)-N-(6-(((6-isopropylimidazo[1,2-a]pyridin-2-yl)methyl)amino)pyrimidin-4-yl)cyclopropane-1-carboxamide], for which the EC50 lay within 10 to 100 nM. Turning to `Cc1ccnc([C@H]2C[C@@H]2C(=O)Nc2cccc(SCc3cn4cc(C5CC5)cc(N5CC(=O)N(C)C5=O)c4n3)c2)n1` [Example I-645, (1S,2S)—N-(3-(((6-cyclopropyl-8-(3-methyl-2,4-dioxoimidazolidin-1-yl)imidazo[1,2-a]pyridin-2-yl)methyl)thio)phenyl)-2-(4-methylpyrimidin-2-yl)cyclopropane-1-carboxamide], the EC50 lay within 10 to 100 nM.

Staying with this assay, now noted: comparative compounds, 500 pM activated kallikrein format; read-out: Primary Dose Response Assay: Average EC50.
Take `Clc1cccc([C@H]2C[C@@H]2CNc2cc(NCc3cn4cc(C5CC5)ccc4n3)ncn2)c1`: the EC50 was in the range of 100 to 1000 nM. Regarding `O=C(NCCc1cccc(Br)c1)c1cnn(Cc2cn3cc(C4CC4)ccc3n2)c1`, the EC50 lay within 1000 to 6000 nM.
